For one experiment, the system named is HeLa S3. Briefly: Cytotoxicity against human HeLaS3 cells assessed as cell growth incubated for 48 hrs by MTT assay. The format is functional, cell-based. As to conditions: HeLa S3, 48 h.
The term IC50 denotes the concentration needed to halve the response being measured. With `CCCCCC/C=C/c1c(C)cc(C)c2[n+]1CC(C)C=C2` (stereo not drawn), the 50% inhibitory concentration (IC50) amounted to 170 nM. For `CCCC/C=C(\C)c1nc(/C=C\C(C)C)c(C)cc1C`, the IC50 was over 30000 nM. As to `CNC(=O)CCCCCc1c(C)cc(C)c2[n+]1CC(C)C=C2` (stereo not drawn), the IC50 was over 30000 nM. Same read-out and setting: under `CCCCCCc1c(C)cc(C)c2[n+]1CC(C)C=C2` (stereo not drawn) stands 470 nM; under `CCCC/C=C/c1c(C)cc(C)c2[n+]1CC(C)CC2` (stereo not drawn), 580 nM; under `CCCCCCCCCC/C=C/c1c(C)cc(C)c2[n+]1CC(C)C=C2` (stereo not drawn), 52 nM. On the same count and under the same terms, under `CCCCCCCCCCCCCC/C=C/c1c(C)cc(C)c2[n+]1CC(C)C=C2` (stereo not drawn) stands 58 nM. As for `CC/C=C/c1c(C)cc(C)c2[n+]1CC(C)C=C2` (stereo not drawn), the IC50 was found to be 2000 nM.

As for `CCCC/C=C(\C)c1c(C)cc(C)c2[n+]1CCC=C2`, the IC50 came out at 680 nM.

Consider `CCCCCCCCCCCC/C=C/c1c(C)cc(C)c2[n+]1CC(C)C=C2` (stereo not drawn), for which the IC50 is 38 nM. On the same count and under the same terms, with `CCCC/C=C/c1c(C)cc(C)c2[n+]1CC(C)C=C2` (stereo not drawn) the figure was 370 nM; with `CCCC/C=C(\C)c1c(C)cc(C)c2[n+]1CC(C)CC2` (stereo not drawn), 360 nM. Take `CCCC/C=C(\C)c1c(C)cc(C)c2[n+]1CC(C)C=C2` (stereo not drawn): the IC50 worked out at 640 nM. Turning to `CCCC/C=C(\C)c1c(C)cc(C)c[n+]1CCCC`, the IC50 worked out at 720 nM.

Regarding `CCCCCCCC/C=C/c1c(C)cc(C)c2[n+]1CC(C)C=C2` (stereo not drawn), the IC50 came out at 51 nM.

The subject of another experiment is HeLa S3. Briefly: Cytotoxicity against human HeLaS3 cells assessed as reduction in cell viability. The format is functional, cell-based.
Settings: not given
Take `C1=Cc2cccc[n+]2CC1`: the 50% inhibitory concentration (IC50) is over 30000 nM.

The subject of a further experiment is HEK293. Briefly: Cytotoxicity against HEK293 cells assessed as cell growth incubated for 48 hrs by MTT assay. The format is cell-based. The conditions noted are these: Homo sapiens, HEK293, 48 h. (In general: Tetrazolium assays rely on reduction of a dye to a coloured formazan, in cell work by metabolically active cells.)
Consider `CNC(=O)CCCCCc1c(C)cc(C)c2[n+]1CC(C)C=C2` (stereo not drawn), for which the IC50 was over 30000 nM. For the molecule `CCCC/C=C(\C)c1c(C)cc(C)c2[n+]1CC(C)C=C2` (stereo not drawn), the IC50 came out at 1700 nM.

These data come from ChEMBL document CHEMBL4627253, “Relationship among structure, cytotoxicity, and Michael acceptor reactivity of quinocidin” (Bioorg Med Chem, 2020).
